Measured values taken from patent US20210378993A1 (Nacuity Pharmaceuticals, Inc., priority 2020, published 2021).
“And” between values parts separate entries of the source, which are not always exact repeats. Equal values may be shown once.

How the values were obtained:
[1] = test system: human cystinotic fibroblasts (GM00008); experiment: Screening of cystine-depleting activity in human cystinotic cell-based model; details: 50 μM
Protocol: A specialized in vitro human cystinotic cell-based model was used for determining cystine content (Omran et al., 2011c). […]
The cells were recovered from storage at −80° C. and suspended in 100 μl […] N-ethyl malimide prepared in phosphate buffer (pH 7.6) followed by sonication for 10 seconds which was repeated 3 times with 20 second cooling intervals on ice. The solution was centrifuged at 800 G for 10 min at 4° C. (Biofuge primo R Heraeus centrifuge). To this cell supernatant (40 μl) was added 4 μl of 4M NaBH4 in 7:3 0.1 M NaOH/DMSO. After 5 min incubation at room temperature, 800 μl of sodium acetate buffer (pH 4.7) was added. A 5 μl volume of the diluted solution was added to 100 μl of 0.6mg/ml solution of Papain-SSCH3 in a 96 well plate and incubated for one hour at room temperature. A 100 μl volume of 4.9 mM L-benzoylarginine p-nitroanilide (L-BAPNA) solution in sodium acetate buffer (pH 4.0) was added to each well of the 96 well plate, gently mixed and incubated for further one hour at room temperature. Absorption at 410 nm was measured and the cysteine levels were calculated by comparison to known cysteine standard.
The protein concentration in every sample was measured according to Bradford method. Briefly, 200 μl of Bradford reagent was added to 5 μl of cell supernatant in each well of a 96 well plate and incubated for 5 minutes at room temperature and the absorption at 595 nm was measured. The protein concentration was calculated using a range of concentrations of bovine serum albumin as a standard. The cysteine levels were determined following normalization to μM cysteine per mg of protein.

[2] = test system: human cystinotic fibroblasts (GM00008); experiment: Cytotoxicity (MTT cell viability) in cystinotic fibroblast cell culture; format: cell-based; details: for increase of human cystinotic cell viability compared to cysteamine at the same concentration: 25 μM; for cell viability (cytotoxicity) versus no treatment: 25, 50 or 75 μM, 48 and 72 hours (FIGS. 1 and 2), MTT
Protocol: Appropriate concentrations of the NACA and diNACA were selected and incubated along with human cystinotic fibroblasts in media. […] Media was then removed, and cells were incubated in 0.5mg/ml MTT (3-(4,5-dimethylthiazol-2-yl)-2,5-diphenyltetrazolium bromide) reconstituted in media. A colorimetric assay used reduction of the yellow tetrazolium salt (MTT) to a purple formazan salt in order to measure cellular metabolic activity as a proxy for cell viability. Treated cells were incubated in MTT for 4 hours at 37° C., after which time intracellular purple formazan salt crystals were visible under a microscope. MTT solution was then removed, and DMSO was added to each well in order to lyse cells and dissolve the salt crystals. After 1 hour incubation at 37° C., absorbance was measured on a multiwell plate reader (Biotek FL6000) at 570 nm, and percentage cell viability calculated.

[3] = test system: rabbit eyes; experiment: Ophthalmic tolerability, daily Draize scores after topical ocular administration; format: in vivo; details: rabbits, 1% in prototype vehicle, per animal and eye; for Daily Draize Scores for Chemosis, Day 1 / Daily Draize Scores for Discharge, Day 1 / Daily Draize Scores for Hyperemia, Day 1 / Daily Draize Scores for Chemosis, Day 2 / Daily Draize Scores for Discharge, Day 2 / Daily Draize Scores for Hyperemia, Day 2 / Daily Draize Scores for Chemosis, Day 3 / Daily Draize Scores for Discharge, Day 3 / Daily Draize Scores for Hyperemia, Day 3 / Daily Draize Scores for Chemosis, Day 4 / Daily Draize Scores for Discharge, Day 4 / Daily Draize Scores for Hyperemia, Day 4 / Daily Draize Scores for Chemosis, Day 5 / Daily Draize Scores for Discharge, Day 5 / Daily Draize Scores for Hyperemia, Day 5 / Daily Draize Scores for Chemosis, Day 6 / Daily Draize Scores for Discharge, Day 6 / Daily Draize Scores for Hyperemia, Day 6: bilateral topical four times a day; for Daily Draize Scores for Chemosis, Day 7 / Daily Draize Scores for Discharge, Day 7 / Daily Draize Scores for Hyperemia, Day 7 / Daily Draize Scores for Chemosis, Day B / Daily Draize Scores for Discharge, Day B / Daily Draize Scores for Hyperemia, Day B: bilateral topical; for Daily Draize Scores for Chemosis, Day 7 / Daily Draize Scores for Discharge, Day 7 / Daily Draize Scores for Hyperemia, Day 7: once on Day 7; for Daily Draize Scores for Chemosis, Day B / Daily Draize Scores for Discharge, Day B / Daily Draize Scores for Hyperemia, Day B: (baseline)
Protocol: To simulate topical ocular exposure to an ophthalmic insert containing AGENT, prototype ophthalmic formulations were prepared containing either 1% NPI-001, 1% diNACA, 1% NAC or vehicle and tested to evaluate ocular tolerability. Three rabbits per group were administered 1% NPI-001, 1% di-NAC, 1% NAC in a prototype vehicle, via bilateral topical administration four times a day for 6 days, and once on Day 7.

[4] = NACA in aqueous humor after topical ocular administration; format: in vivo; details: rabbit eyes, 1% topical ocular
Protocol: The thiol moiety of NAC, NACA, diNACA and their respective internal standards oxidizes quickly in plasma through formation of disulfides. In order to determine total NAC and total NACA levels in plasma, tris(2-carboxyethyl)phosphine (TCEP) is added during the extraction to reduce disulfide bonds (King et al., 2019). Ammonium bicarbonate is added to control sample pH near neutral, as TCEP will otherwise acidify the aliquoted samples and hinder derivatization. The free analyte is then derivatized to a stable thioether using 2-chloro-1-methylpyridinium iodide (CMPI). N-acetyl-L-cysteine is used as the reference standard. The assay would not discern the enantiomer, N-acetyl-D-cysteine, if present. A sample volume of 25.0 μL is aliquoted into a 1.2 mL 96-well plate to which is added, in sequence, 25.0 μL internal standard solution (1000 ng/mL NAC-D3 and 1000 ng/mL NACA-D3 in water), 50.0 μL of ammonium bicarbonate (100 mM), 5.0 μL CMPI (60 mM in water), and 5.0 μL of TCEP (60 mM in water). Samples are allowed to react for 30 minutes. To precipitate proteins, 500 μL of acetonitrile is then added to all samples. The plate is covered and the mixtures are shaken and centrifuged. […]
Samples were analyzed on a Waters Acquity liquid chromatograph interfaced with a Thermo Scientific TSQ Vantage triple quadrupole mass spectrometer with ESI ionization (King et al., 2019). […]

[5] = biological target: T1, glutamate cysteine ligase (GCL, EC 6.3.2.2) (Homo sapiens, UniProt P48506); details: cited from earlier work
T1 sequence (P48506 1-637): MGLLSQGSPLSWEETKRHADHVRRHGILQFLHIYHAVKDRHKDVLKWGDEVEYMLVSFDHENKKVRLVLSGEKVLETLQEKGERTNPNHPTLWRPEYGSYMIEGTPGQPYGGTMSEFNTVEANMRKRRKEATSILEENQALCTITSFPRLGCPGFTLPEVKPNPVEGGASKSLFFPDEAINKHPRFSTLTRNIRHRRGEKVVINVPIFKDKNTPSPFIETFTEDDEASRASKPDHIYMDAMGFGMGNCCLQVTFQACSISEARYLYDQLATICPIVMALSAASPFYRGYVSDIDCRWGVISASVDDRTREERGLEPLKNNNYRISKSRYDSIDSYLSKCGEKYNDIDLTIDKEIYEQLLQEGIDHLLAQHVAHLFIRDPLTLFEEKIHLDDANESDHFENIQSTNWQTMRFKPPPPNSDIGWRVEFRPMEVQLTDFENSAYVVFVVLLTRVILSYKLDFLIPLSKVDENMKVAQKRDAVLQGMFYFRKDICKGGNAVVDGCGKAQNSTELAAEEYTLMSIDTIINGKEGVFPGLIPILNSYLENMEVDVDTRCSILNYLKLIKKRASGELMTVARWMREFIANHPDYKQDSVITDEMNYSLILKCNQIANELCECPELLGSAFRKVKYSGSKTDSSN
T1 sequence (P48507 1-274 partner): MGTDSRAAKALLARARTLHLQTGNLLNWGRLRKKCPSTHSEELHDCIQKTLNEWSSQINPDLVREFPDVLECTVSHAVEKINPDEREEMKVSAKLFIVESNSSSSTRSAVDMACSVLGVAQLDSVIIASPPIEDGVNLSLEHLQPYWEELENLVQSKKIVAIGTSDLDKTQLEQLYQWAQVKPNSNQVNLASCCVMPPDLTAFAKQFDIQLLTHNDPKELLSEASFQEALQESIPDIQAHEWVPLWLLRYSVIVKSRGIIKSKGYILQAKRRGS

[6] = eyedrops, stored at −20° C. until dispensed, kept refrigerated once opened; cited from earlier work

SMILES	relative cystine concentration as percent of control, comparison with cysteamine ([1]; 6 hours (FIG. 3))	relative cystine concentration as percent of control, comparison with cysteamine ([1]; 24 hours (FIG. 4))	relative cystine concentration as percent of control, comparison with cysteamine ([1]; 48 hours (FIG. 5))	cell viability (cytotoxicity) versus no treatment [2]	Daily Draize Scores for Chemosis, Day 1 [3]	Daily Draize Scores for Discharge, Day 1 [3]	Daily Draize Scores for Hyperemia, Day 1 [3]	Daily Draize Scores for Chemosis, Day 2 [3]	Daily Draize Scores for Discharge, Day 2 [3]	Daily Draize Scores for Hyperemia, Day 2 [3]	Daily Draize Scores for Chemosis, Day 3 [3]	Daily Draize Scores for Discharge, Day 3 [3]	Daily Draize Scores for Hyperemia, Day 3 [3]	Daily Draize Scores for Chemosis, Day 4 [3]	Daily Draize Scores for Discharge, Day 4 [3]	Daily Draize Scores for Hyperemia, Day 4 [3]	Daily Draize Scores for Chemosis, Day 5 [3]	Daily Draize Scores for Discharge, Day 5 [3]	Daily Draize Scores for Hyperemia, Day 5 [3]	Daily Draize Scores for Chemosis, Day 6 [3]	other results
CC(=O)NC(CSSCC(NC(C)=O)C(N)=O)C(N)=O [diNACA, (2R,2R′)-3,3′-disulfanediyl bis(2-acetamidopropanamide)]	statistically superior to cysteamine	superior to cysteamine	statistically superior to cysteamine	increased cell viability	0	0	0	0	0	0	0	0	0	0	0 (3×) and 1 (2×) and 0.5	0	0	0	0	0	depletion of cystine compared to control ([1]; 72 hours (FIG. 6)): 20%; increase of human cystinotic cell viability compared to cysteamine at the same concentration ([2]; 48 hours (FIG. 1)): statistically superior to cysteamine; increase of human cystinotic cell viability compared to cysteamine at the same concentration ([2]; 72 hours (FIG. 2)): statistically superior to cysteamine; Daily Draize Scores for Discharge, Day 6 [3]: 0 (4×) and 0.5 (2×); Daily Draize Scores for Hyperemia, Day 6 [3]: 0; Daily Draize Scores for Chemosis, Day 7 [3]: 0; Daily Draize Scores for Discharge, Day 7 [3]: 0 (5×) and 0.5; Daily Draize Scores for Hyperemia, Day 7 [3]: 0; Daily Draize Scores for Chemosis, Day B [3]: 0; Daily Draize Scores for Discharge, Day B [3]: 0; Daily Draize Scores for Hyperemia, Day B [3]: 0; NACA in aqueous humor [4]: detectable
N[C@@H](CCC(=O)N[C@@H](CS)C(=O)NCC(=O)O)C(=O)O [GSH, c-L-glutamyl-L-cysteinyl-glycine]	–	–	–	–	–	–	–	–	–	–	–	–	–	–	–	–	–	–	–	–	Ki ([5]; read-out: Ki, nonallosteric competitive inhibition of GCL): 2300 µM
CC(=O)NC(CS)C(N)=O (stereo not shown)	statistically superior to cysteamine	statistically superior	statistically superior to cysteamine	increased cell viability	0	0	0	0	0	0	0	0	0	0	0	0	0	0	0	0	relative cystine concentration as percent of control, comparison with cysteamine ([1]; 72 hours (FIG. 6)): superior to cysteamine; increase of human cystinotic cell viability compared to cysteamine at the same concentrations ([2]; all concentrations (25, 50, 75 μM), 72 hours (FIG. 2)): statistically superior to cysteamine; Daily Draize Scores for Hyperemia, Day 6 [3]: 0; Daily Draize Scores for Discharge, Day 6 ([3]; listed as NPI-001): 0.5 and 0 (5×); Daily Draize Scores for Chemosis, Day 7 [3]: 0; Daily Draize Scores for Hyperemia, Day 7 [3]: 0; Daily Draize Scores for Discharge, Day 7 ([3]; listed as NPI-001): 0 (4×) and 0.5 (2×); Daily Draize Scores for Chemosis, Day B [3]: 0; Daily Draize Scores for Discharge, Day B [3]: 0; Daily Draize Scores for Hyperemia, Day B [3]: 0; NACA in aqueous humor [4]: detectable
NCCS [cysteamine, reference compound]	–	–	–	increased cell viability	–	–	–	–	–	–	–	–	–	–	–	–	–	–	–	–	shelf life [6]: 1 week
N[C@@H](CS)C(=O)O [cysteine, L-cysteine]	–	–	–	–	–	–	–	–	–	–	–	–	–	–	–	–	–	–	–	–	Km [5]: 100 to 300 µM
